Data on 18 compounds can be found in patent US20250066370A1, “BICYCLIC TRIAZINE DERIVATIVES FOR THE TREATMENT OF CANCER” (DEUTSCHES KREBSFORSCHUNGSZENTRUM, priority 2022, published 2025).

The target of one experiment is CDK2/CyclinE (Homo sapiens (Human), UniProt P24941). Kind of experiment: CDK2/CycE kinase assay (TR-FRET). The experiment is classed as biochemical. The following applies: 2 mM ATP (high ATP); median; read-out: CDK2/CyclinE, 2 mM ATP (high ATP), IC50 - [mol/l] (median). The source says: CDK2/CycE-inhibitory activity of compounds of the present invention was quantified employing the CDK2/CycE TR-FRET assay as described in the following paragraphs.
Recombinant fusion proteins of GST and human CDK2 and of GST and human CycE, expressed in insect cells (Sf9) and purified by Glutathion-Sepharose affinity chromatography, were purchased from ProQinase GmbH (Freiburg, Germany). As substrate for the kinase reaction biotinylated peptide biotin-Ttds-YISPLKSPYKISEG (C-terminus in amid form) was used which can be purchased e.g. form the company JERINI peptide technologies (Berlin, Germany).
For the assay 50 nanoL of a 100 fold concentrated solution of the test compound in DMSO was pipetted into a black low volume 384 well microtiter plate or a black 1536 well microtiter plate (both Greiner Bio-One, Frickenhausen, Germany), 2 microL of a solution of CDK2/CycE in aqueous assay buffer [50 millimol/L Tris/HCl PH 8.0, 10 millimol/L MgCl2, 1.0 millimol/L dithiothreitol, 0.1 millimol/L sodium ortho-vanadate, 0.01% (v/v) Nonidet-P40 (Sigma)] were added and the mixture was incubated for 15 min at 22° C. to allow pre-binding of the test compounds to the enzyme before the start of the kinase reaction. Then the kinase reaction was started by the addition of 3 microL of a solution of adenosine-tri-phosphate (ATP, 3.33 millimol/L=>final conc. in the 5 microL assay volume is 2 millimol/L) and substrate (1.25 micromol/L=>final conc. in the 5 microL assay volume is 0.75 micromol/L) in assay buffer and the resulting mixture was incubated for a reaction time of 25 min at 22° C. The concentration of CDK2/CycE was adjusted depending of the activity of the enzyme lot and was chosen appropriate to have the assay in the linear range, typical concentrations were in the range of 10 ng/ml. The reaction was stopped by the addition of 3 microL of a solution of TR-FRET detection reagents (0.333 micromol/L streptavidine-XL665 [Cisbio Bioassays, Codolet, France] and 1.67 nanomol/L anti-RB (pSer807/pSer811)-antibody from BD Pharmingen [#558389] and 2 nanomol/L LANCE EU-W1024 labeled anti-mouse IgG antibody [Perkin-Elmer, product no. AD0077, as an alternative a Terbium-cryptate-labeled anti-mouse IgG antibody from Cisbio Bioassays can be used]) in an aqueous EDTA-solution (167 millimol/L EDTA, 0.2% (w/v) bovine serum albumin in 100 millimol/L HEPES pH 7.5).
The resulting mixture was incubated 1 h at 22° C. to allow the formation of complex between the phosphorylated biotinylated peptide and the detection reagents. Subsequently the amount of phosphorylated substrate was evaluated by measurement of the resonance energy transfer from the Eu-chelate to the streptavidine-XL. Therefore, the fluorescence emissions at 620 nm and 665 nm after excitation at 350 nm was measured in a TR-FRET reader, e.g. a Pherastar (BMG Labtechnologies, Offenburg, Germany) or a Viewlux (Perkin-Elmer). The ratio of the emissions at 665 nm and at […] was taken as the measure for the amount of phosphorylated substrate. The data were normalised (enzyme reaction without inhibitor=0% inhibition, all other assay components but no enzyme=100% inhibition).

Experiment [1] has as its system BRCA1 mRNA expression in MDA-MB-231 cells. The experiment is described as follows: qRT-PCR assay: inhibition of BRCA1 mRNA expression in MDA-MB-231 cells. The following applies: Homo sapiens, 24 h exposure, BRCA1 normalised to GAPDH, median, read-out: RTqPCR-MDA-MB-231, IC50 [mol/l], BRCA1 (median). The experiment is classed as cell-based. As for the experimental part:
3. qRT-PCR Assay: BRCA1, ATR, MCL1 in MDA-MB-231, CAL-120
Tissue cultured human MDA-MB-231 human breast cancer cells were plated in 500 microL per well at 200,000 cells/well in a 24 well microtiter plate. After 24 h, the cells were exposed continuously for 24 h to test substances (substances were added with Tecan HP D300 Dispenser). RNA was prepared using Qiagen RNeasy MiniKit (#74106), RNA was quantified using a NanoDrop Equipment, and 600 nano grams of RNA was converted to cDNA using a SuperScript VILO kit (Thermofisher #11755050) followed by qPCR amplification. BRCA1 and ATR gene expression was measured by RT-qPCR and normalised to GAPDH housekeeping gene expression. qPCR primer sets have been purchased from Thermo Fisher Scientific/Applied Biosystems: BRCA1, #Hs 01556193; ATR. #Hs 00992123: GAPDH. #Hs 03929097.
(In qPCR the cycle at which signal appears reflects the starting amount.)

Some results are limits rather than exact numbers.

For `FC(F)(F)c1ccc(-c2nnc(CNc3nc(N4CCOCC4)nc4c(Br)cnn34)[nH]2)cc1` [Example 1, 8-bromo-2-(morpholin-4-yl)-N-({5-[4-(trifluoromethyl)phenyl]-4H-1,2,4-triazol-3-yl}methyl)pyrazolo[1,5-a][1,3,5]triazin-4-amine], the figures for the IC50 (at CDK2/CyclinE; in experiment [1]) were 9.81 µM and 0.514 µM, respectively. For `FC(F)(F)Oc1ccc(-c2nnc(CNc3nc(N4CCOCC4)nc4c(Br)cnn34)[nH]2)cc1` [Example 2, 8-bromo-2-(morpholin-4-yl)-N-({5-[4-(trifluoromethoxy)phenyl]-4H-1,2,4-triazol-3-yl}methyl)pyrazolo[1,5-a][1,3,5]triazin-4-amine], in that order: 11.2 µM and 0.272 µM. `FC(F)(F)c1ccc(-c2cnc(CNc3nc(N4CCOCC4)nc4c(Br)cnn34)[nH]2)cc1` [Example 3, 8-bromo-2-(morpholin-4-yl)-N-({5-[4-(trifluoromethyl)phenyl]-1H-imidazol-2-yl}methyl)pyrazolo[1,5-a][1,3,5]triazin-4-amine]: on CDK2/CyclinE, the IC50 came out at 7.92 µM. With `FC(F)(F)Oc1ccc(-c2cnc(CNc3nc(N4CCOCC4)nc4c(Br)cnn34)[nH]2)cc1` [Example 4, 8-bromo-2-(morpholin-4-yl)-N-({5-[4-(trifluoromethoxy)phenyl]-1H-imidazol-2-yl}methyl)pyrazolo[1,5-a][1,3,5]triazin-4-amine], the figures for the IC50 (at CDK2/CyclinE; in experiment [1]) were 10.4 µM and 0.00694 µM, respectively. As for `FC(F)(F)Oc1ccc(-c2nnc(CNc3nc(N4CCOCC4)nc4c(C(F)(F)F)cnn34)[nH]2)cc1` [Example 5, 2-(morpholin-4-yl)-N-({5-[4-(trifluoromethoxy)phenyl]-4H-1,2,4-triazol-3-yl}methyl)-8-(trifluoromethyl)pyrazolo[1,5-a][1,3,5]triazin-4-amine], the IC50 on CDK2/CyclinE was over 20 µM; in experiment [1], 0.109 µM.

As to `FC(F)(F)c1ccc(-c2nnc(CNc3nc(N4CCOCC4)nc4c(C(F)(F)F)cnn34)[nH]2)cc1` [Example 6, 2-(morpholin-4-yl)-8-(trifluoromethyl)-N-({5-[4-(trifluoromethyl)phenyl]-4H-1,2,4-triazol-3-yl}methyl)pyrazolo[1,5-a][1,3,5]triazin-4-amine], on CDK2/CyclinE, the IC50 is over 20 µM. On the same count and under the same terms, under `FC(F)(F)c1ccc(-c2cnc(CNc3nc(N4CCOCC4)nn4c(C(F)(F)F)cnc34)[nH]2)cc1` [Example 7, 2-(morpholin-4-yl)-7-(trifluoromethyl)-N-({5-[4-(trifluoromethyl)phenyl]-1H-imidazol-2-yl}methyl)imidazo[2,1-f][1,2,4]triazin-4-amine] stands over 20 µM.

Turning to `FC(F)(F)Oc1ccc(-c2cnc(CNc3nc(N4CCOCC4)nn4c(C(F)(F)F)cnc34)[nH]2)cc1` [Example 8, 2-(morpholin-4-yl)-N-({5-[4-(trifluoromethoxy)phenyl]-1H-imidazol-2-yl}methyl)-7-(trifluoromethyl)imidazo[2,1-f][1,2,4]triazin-4-amine], the IC50 at CDK2/CyclinE is over 20 µM; in experiment [1] it was 0.0382 µM. In the case of `FC(F)(F)c1ccc(-c2cnc(CNc3nc(N4CCOCC4)nc4c(C(F)(F)F)cnn34)[nH]2)cc1` [Example 9, 2-(morpholin-4-yl)-8-(trifluoromethyl)-N-({5-[4-(trifluoromethyl)phenyl]-1H-imidazol-2-yl}methyl)pyrazolo[1,5-a][1,3,5]triazin-4-amine], the figures for the IC50 (on CDK2/CyclinE; in experiment [1]) were over 20 µM and 0.102 µM, respectively.

As for `FC(F)(F)Oc1ccc(-c2cnc(CNc3nc(N4CCOCC4)nc4c(C(F)(F)F)cnn34)[nH]2)cc1` [Example 10, 2-(morpholin-4-yl)-N-({5-[4-(trifluoromethoxy)phenyl]-1H-imidazol-2-yl}methyl)-8-(trifluoromethyl)pyrazolo[1,5-a][1,3,5]triazin-4-amine], the IC50 on CDK2/CyclinE was over 20 µM; in experiment [1], 0.0373 µM. On to `FC(F)(F)c1ccc(-c2nnc(CNc3nc(N4CCOCC4)nn4c(C(F)(F)F)cnc34)[nH]2)cc1` [Example 11, 2-(morpholin-4-yl)-7-(trifluoromethyl)-N-({5-[4-(trifluoromethyl)phenyl]-4H-1,2,4-triazol-3-yl}methyl)imidazo[2,1-f][1,2,4]triazin-4-amine], for which the IC50 at CDK2/CyclinE is over 20 µM. As for `FC(F)(F)c1ccc(-c2cnc(CNc3nc(N4CCOCC4)nn4c(C(F)(F)F)cnc34)[nH]2)cn1` [Example 12, 2-(morpholin-4-yl)-7-(trifluoromethyl)-N-({5-[6-(trifluoromethyl)pyridin-3-yl]-1H-imidazol-2-yl}methyl)imidazo[2,1-f][1,2,4]triazin-4-amine], the figures for the IC50 (on CDK2/CyclinE; in experiment [1]) were over 20 µM and 0.00757 µM, respectively. On to `FC(F)(F)Oc1ccc(-c2nnc(CNc3nc(N4CCOCC4)nn4c(C(F)(F)F)cnc34)[nH]2)cc1` [Example 14, 2-(morpholin-4-yl)-N-({5-[4-(trifluoromethoxy)phenyl]-4H-1,2,4-triazol-3-yl}methyl)-7-(trifluoromethyl)imidazo[2,1-f][1,2,4]triazin-4-amine], for which the IC50 on CDK2/CyclinE is over 20 µM.

Take `COc1ccc(-c2nnc(CNc3nc(N4CCOCC4)nc4c(C(F)(F)F)cnn34)[nH]2)cn1` [Example 15, N-{[5-(6-methoxypyridin-3-yl)-4H-1,2,4-triazol-3-yl]methyl}-2-(morpholin-4-yl)-8-(trifluoromethyl)pyrazolo[1,5-a][1,3,5]triazin-4-amine]: on CDK2/CyclinE, the IC50 is 3.12 µM.

Consider `COc1ccc(-c2nnc(CNc3nc(N4CCOCC4)nn4c(C(F)(F)F)cnc34)[nH]2)cn1` [Example 18, N-{[5-(6-methoxypyridin-3-yl)-4H-1,2,4-triazol-3-yl]methyl}-2-(morpholin-4-yl)-7-(trifluoromethyl)imidazo[2,1-f][1,2,4]triazin-4-amine], for which, in experiment [1], the IC50 is 0.0715 µM.

Regarding `FC(F)(F)Oc1ccc(-c2nnc(CNc3nc(N4CCOCC4)nn4c(C(F)(F)F)cnc34)[nH]2)cn1` [Example 19, 2-(morpholin-4-yl)-N-({5-[6-(trifluoromethoxy)pyridin-3-yl]-4H-1,2,4-triazol-3-yl}methyl)-7-(trifluoromethyl)imidazo[2,1-f][1,2,4]triazin-4-amine], the IC50 on CDK2/CyclinE was over 20 µM; in experiment [1], 0.0345 µM. On to `Cc1ccc(-c2nnc(CNc3nc(N4CCOCC4)nc4c(C(F)(F)F)cnn34)[nH]2)cn1` [Example 22, N-{[5-(6-methylpyridin-3-yl)-4H-1,2,4-triazol-3-yl]methyl}-2-(morpholin-4-yl)-8-(trifluoromethyl)pyrazolo[1,5-a][1,3,5]triazin-4-amine], for which the IC50 on CDK2/CyclinE is 3.12 µM. Take `FC(F)(F)c1ccc(-c2cnc(CNc3nc(N4CCOCC4)nc4c(C(F)(F)F)cnn34)[nH]2)cn1` [Example 24, 2-(morpholin-4-yl)-8-(trifluoromethyl)-N-({5-[6-(trifluoromethyl)pyridin-3-yl]-1H-imidazol-2-yl}methyl)pyrazolo[1,5-a][1,3,5]triazin-4-amine]: the IC50 in experiment [1] amounted to 0.0295 µM.
